Reference: patent US9668979B2, “Piperaquine microcapsules and compositions containing them” (ADARE PHARMACEUTICALS S.R.L., priority 2013, dated 2017)

Experiment: Compatibility of piperaquine with the coacervation process (heating/cooling cycles; assay, Karl Fischer, XRPD)
Format: physicochemical
Conditions: heating/cooling cycles mimicking the process
Protocol: Water content: Karl Fischer titration: Ph. Eur. 2.5.12 Method; following sample titration conditions are applied: sample solvent: methanol: formamide 1:1; sample weight: 50 mg; the value of water content in a sample is expressed as % w/w. X-Ray Powder Diffraction (XRPD) measurements are performed on a Philips X′Pert PRO diffractometer (Bragg-Brentano geometry). A compatibility study is carried out on piperaquine to assess the compatibility of the drug with the coacervation process. In particular, piperaquine undergoes heating/cooling cycles mimicking thermal excursions of the process. Then, the following tests are performed both before and after thermal cycles to ascertain the stability of piperaquine: water content analysis (Karl Fisher test); effect of mechanical stress; crystalline structure by XRPD.

SMILES: Clc1ccc2c(N3CCN(CCCN4CCN(c5ccnc6cc(Cl)ccc56)CC4)CC3)ccnc2c1 [PQP•4H2O, 4,4′-(1,3-propanediyldi-4,1-piperazinediyl) bis(7-chloroquinoline) phosphate hydrate (1:4:4)]
- Effect of heating/cooling cycle on the drug: not affected by heating/cooling cycle
